From patent publication US7687079B2, “Methods of treating ileus” (priority 2002, dated 2010) come the findings set out here.

This assay concerns IL-1β protein. Briefly: IL-1β protein release from muscularis extracts (ELISA). The class given is in vivo, mouse. As to the method:
Protein and Nitric Oxide Determinations. The small bowel of control and mice subjected to intestinal manipulation was removed under sterile conditions, 4 or 24 hours post-operatively, leaving the colon in situ. The small intestine was transferred to a beaker containing chilled Hanks balanced salt solution (Sigma, St. Louis, Mo.) with 200 U/ml penicillin G and 200 μg/ml streptomycin (HBSS), the lumen flushed, and the tissue transferred to a second beaker of HBSS. The muscularis was harvested as described above for real time RT-PCR. Tissues were maintained under sterile conditions at 3 to 5° C. throughout the harvesting procedure. Isolated muscularis was blotted onto sterile gauze, and the wet weight determined to obtain aliquots of 40 to 60 mg. Tissue aliquots were washed twice in HBSS, transferred to 35 mm well culture plates containing 3 ml of serum-free DMEM containing penicillin/streptomycin, and incubated for 24 hrs in a humidified 5% CO2 incubator at 37° C. Pharmacological agents added to the culture medium were filter sterilized prior to use.
After the incubation period, the muscle tissue was pelleted, and aliquots of culture medium were frozen in liquid nitrogen and stored at −80° C. The levels of IL-6, IL-1β, PGE2, and IL-10 proteins secreted into the culture medium were determined using commercially available ELISA kits (R&D Systems, Minneapolis, Minn.) according to the manufacturer's instructions. Nitric oxide (NO) released into the culture medium was estimated by measuring the stable end products of NO metabolism. Nitrate/nitrate levels were measured 24 hrs postoperatively using commercially available test kit (Oxford Biomedical Research, Oxford, Mich.) and quantified according to the manufacturer's directions. In this assay system, nitrate is reduced to nitrite using granulated cadmium, and the total nitrite concentration is subsequently measured using the Griess reaction. All measurements were normalized to tissue wet weight.
(In an ELISA, binding on a coated surface is turned into a signal by an enzyme label.)

With `[C-]#[O+]` [CO, carbon monoxide], the IL-1β protein release entry (IM + CO vs IM, 24 hr after surgery) is on record as “significantly attenuated”. Further, the “reduction of IL-1β protein release” value (IM + CO vs IM, extracts harvested 24 hr after surgery) is listed as 60%. For the same compound, the IL-1β protein result (control mice treated with CO) is recorded as “no IL-1β protein could be detected”.
